Source: article PMC8400955 (Pharmaceuticals, 2021)
Values joined by “and” are separate entries in the source; they are usually repeats but may differ in a detail not shown here. Equal entries are not always repeated.

Experiments:
[1] = Plasma protein binding by equilibrium dialysis, mouse; format: in vitro ADME; conditions: plasma (EDTA-K2 as anticoagulant)
Method: (§1) The in vitro binding of ZB716 to plasma proteins was determined by equilibrium dialysis technique in mouse, rat, dog, monkey, and human plasma (EDTA-K2 as anticoagulant), over the concentration range of 0.1–10 μM. The free concentration of ZB716 was below the lower limit of quantitation at 0.1, 1, and 10 μM in human, monkey, dog, rat, and mouse plasma.
(§2) The equilibrium dialysis method was used to investigate the in vitro binding of ZB716 to human, monkey, dog, rat, and mouse plasma proteins. The dialysis phosphate buffer solution (100 mM, pH 7.4) and plasma samples containing 0.1, 1, and 10 μM of ZB716 were added to separate chambers of dialysis wells of the HTDialysis device. The dialysis plate was placed in an incubator at 37 °C with 5% CO2 at approximately 100 rpm for 6 h. After incubation, the seal was removed, and 50 μL each of post-dialysis samples was pipetted from both the buffer and plasma chambers into fresh 96-well plates. The samples were analyzed via UPLC–MS/MS. The bound fraction, unbound fraction, recovery (%), and remaining (%) were calculated by Equations (2)–(5):%Unbound = (Conc.buffer chamber/Conc.plasma chamber) × 100(2) %Bound = 100% − %Unbound (3) %Recovery = (Conc.buffer chamber + Conc.plasma chamber)/Conc.Total sample × 100 (4) %Remaining = Conc.6h/Conc.0h × 100 (5)

[2] = test system: mouse plasma proteins; test: as above; format: in vitro ADME; conditions: for Remaining: 6 h
Method: as §1, §2

[3] = target: CYP2D6 (Homo sapiens, UniProt P10635); test: CYP inhibition in human liver microsomes, CYP2D6; format: in vitro ADME; conditions: HLM, marker substrate Dextromethorphan
Method: . The inhibition of CYP2B6 and 3A4 (when midazolam was used as the substrate) by ZB716 was not observed. The inhibitory potential of ZB716 on human CYP enzyme activities appears relatively low.
The final concentrations of ZB716 in the incubation system were 0, 0.05, 0.15, 0.5, 1.5, 5, and 15 µM (final organic solvent concentration ≤ 1%). […] . […] The concentrations of the isoform-specific metabolites derived from marker substrates were measured by UPLC–MS/MS. The IC50 values were calculated from the percentages of the rate of the metabolite formation relative to non-inhibited controls vs. the concentrations of ZB716 or positive control inhibitors. All incubations were performed in triplicate. The mean of the enzyme activity (% of non-inhibited control) for each concentration was plotted against the log inhibitor concentration, and fitted to an IC50 curve.

[4] = target: T1, CYP2C8 (Homo sapiens, UniProt P10632); test: CYP phenotyping, recombinant CYP2C8
T1 sequence (P10632 1-490): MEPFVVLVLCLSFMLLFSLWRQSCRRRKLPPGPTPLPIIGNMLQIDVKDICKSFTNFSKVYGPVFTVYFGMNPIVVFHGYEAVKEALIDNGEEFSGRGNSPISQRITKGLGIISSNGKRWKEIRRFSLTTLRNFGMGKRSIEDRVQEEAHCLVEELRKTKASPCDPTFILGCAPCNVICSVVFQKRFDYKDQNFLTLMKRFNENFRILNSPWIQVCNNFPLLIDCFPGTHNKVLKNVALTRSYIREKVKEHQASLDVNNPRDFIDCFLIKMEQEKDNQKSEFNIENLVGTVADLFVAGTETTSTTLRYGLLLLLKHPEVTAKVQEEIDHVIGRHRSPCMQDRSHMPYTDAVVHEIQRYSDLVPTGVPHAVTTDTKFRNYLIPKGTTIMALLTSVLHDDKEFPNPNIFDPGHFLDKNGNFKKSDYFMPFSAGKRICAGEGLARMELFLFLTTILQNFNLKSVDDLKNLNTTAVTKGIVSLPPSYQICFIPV
Method: (§3) Bactosomes prepared from E. coli that heterologously expressed individual human CYP isoforms together with human CYP reductase were obtained from CYPEX LTD (Scotland, UK), and stored at −80 °C prior to use. […] Timepoints were taken at 0, 5, 10, 15, 20, and 30 min. Substrate disappearance was used to calculate intrinsic clearance (Clint) and half-life (t1/2). All incubations were performed in triplicate. […] The chemical inhibitors for CYP1A2, 2A6, 2B6, 2C8, 2C9, 2C19, 2D6, and 3A4 were furafylline, tranylcypromine, ticlopidine, montelukast, sulfaphenazole, N-3-benzylnirvanol, quinidine, and ketoconazole, respectively. Timepoints were collected at 0, 15, 30, 45, and 60 min, and the remaining percentage of the parent drug at each timepoint was calculated (the calculation details are available in the Supplementary Materials). All incubations were performed in triplicate.
1.3.1 Intrinsic Clearance (Heterologously Expressed Human Cytochrome P450) All calculations were carried out using Microsoft Excel. The slope, k, was determined by linear regression of the natural logarithm of percent parent disappearance vs. incubation time curve. Peak areas for test article and internal standard were determined from extracted ion chromatograms. The peak area ratio was used to calculated for the results.
The half-life value (t1/2 rCYPi) was determined from the slope value: […]

[5] = target: CYP3A4 (Homo sapiens, UniProt P08684); test: CYP phenotyping, recombinant CYP3A4
Method: as §3
(§4) The slope, k, was determined by linear regression of the natural logarithm of percent parent disappearance vs. incubation time curve. Peak areas for test article and internal standard were determined from extracted ion chromatograms. The peak area ratio was used to calculated for the results.
(§5) The half-life value (t1/2 rCYPi) was determined from the slope value:
(§6) Conversion of the t1/2 rCYPi (in min) into the intrinsic clearance (Clint rCYPi in μL/min/pmol) was done using the following equation:
(§7) 1.3.2 For inhibition ratio (%) (Liver microsomes with and without inhibitors) The slope value, k, was determined by linear regression of the natural logarithm of the remaining percentage of the parent drug vs. incubation time curve. If the turnover was not significant (T-test with p<0.05 was not obtained) and the percentage remaining at last time point was ≥ 80%, the k value was

[6] = test system: CYP1A2; test: CYP induction (enzyme activity) in cryopreserved human hepatocytes, CYP1A2; conditions: for fold induction at 72 h, 0.15 µM / fold induction at 72 h, 1.5 µM / fold induction at 72 h, 5 µM / fold induction at 72 h, 15 µM: human, plated cryopreserved human hepatocytes
Method: The UPLC–MS/MS (SHIMADZU, LC-30AD) equipped with waters Xselect®HSS T3 2.5 μm (2.1 × 50 mm) was used to detect the marker metabolites in the enzyme activity assay. The fold-induction enzyme activity was determined using the ratio calculation (the calculation details are available in the Supplementary Materials).
CYP activity was expressed as pmol/min/million cells where pmol was defined as the amount of metabolite formed during the reaction. […] The fold-induction enzyme activity was determined by the ratio:
Fold of induction = CYP activity(induced) / CYP activity(vehicle)
% of positive control = (𝑪𝒀𝑷 𝒂𝒄𝒕𝒊𝒗𝒊𝒕𝒚(𝒊𝒏𝒅𝒖𝒄𝒆𝒅)ି 𝑪𝒀𝑷 𝒂𝒄𝒕𝒊𝒗𝒊𝒕𝒚(𝑫𝑴𝑺𝑶))(𝑪𝒀𝑷 𝒂𝒄𝒕𝒊𝒗𝒊𝒕𝒚(𝒑𝒐𝒔𝒊𝒕𝒊𝒗𝒆 𝒄𝒐𝒏𝒕𝒓𝒐𝒍)ି 𝑪𝒀𝑷 𝒂𝒄𝒕𝒊𝒗𝒊𝒕𝒚(𝑫𝑴𝑺𝑶))х 𝟏𝟎𝟎 Based on the enzyme activity, a minimum of 2-fold increase of a response compared to vehicle control and ≥ 20% of the positive control was considered as the cutoff for a positive signal in in vitro induction

[7] = test system: human liver microsomes; test: ZB716 remaining in human liver microsomes with and without CYP-specific chemical inhibitors; conditions: HLM
Method: as §3, §4, §5, §6, §7

[8] = 2 µM ZB716, with CYP1A2 inhibitor Furafylline
[9] = 2 µM ZB716, with CYP2A6 inhibitor Tranylcypromine
[10] = 2 µM ZB716, with CYP2B6 inhibitor Ticlopidine
[11] = 2 µM ZB716, with CYP2C8 inhibitor Montelukast
[12] = 2 µM ZB716, with CYP2C9 inhibitor Sulfaphenazole
[13] = 2 µM ZB716, with CYP2C19 inhibitor N-3-benzylnirvanol
[14] = 2 µM ZB716, with CYP2D6 inhibitor Quinidine
[15] = 2 µM ZB716, with CYP3A inhibitor Ketoconazole

CYP3A4, sequence (P08684 whole entry): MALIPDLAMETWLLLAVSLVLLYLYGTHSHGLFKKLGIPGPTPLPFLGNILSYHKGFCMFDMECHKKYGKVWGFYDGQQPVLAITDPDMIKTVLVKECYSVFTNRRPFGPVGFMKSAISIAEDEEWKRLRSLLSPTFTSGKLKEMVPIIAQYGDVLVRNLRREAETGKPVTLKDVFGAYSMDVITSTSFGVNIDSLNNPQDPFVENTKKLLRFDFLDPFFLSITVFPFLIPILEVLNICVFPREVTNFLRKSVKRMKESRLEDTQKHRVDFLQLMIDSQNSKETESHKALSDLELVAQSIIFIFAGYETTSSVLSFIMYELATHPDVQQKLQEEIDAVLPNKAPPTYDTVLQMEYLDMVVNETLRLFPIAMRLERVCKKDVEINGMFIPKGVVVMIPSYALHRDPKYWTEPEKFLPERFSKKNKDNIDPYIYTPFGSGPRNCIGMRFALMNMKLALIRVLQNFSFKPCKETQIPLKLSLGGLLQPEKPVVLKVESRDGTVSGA
CYP2D6, sequence (P10635 whole entry): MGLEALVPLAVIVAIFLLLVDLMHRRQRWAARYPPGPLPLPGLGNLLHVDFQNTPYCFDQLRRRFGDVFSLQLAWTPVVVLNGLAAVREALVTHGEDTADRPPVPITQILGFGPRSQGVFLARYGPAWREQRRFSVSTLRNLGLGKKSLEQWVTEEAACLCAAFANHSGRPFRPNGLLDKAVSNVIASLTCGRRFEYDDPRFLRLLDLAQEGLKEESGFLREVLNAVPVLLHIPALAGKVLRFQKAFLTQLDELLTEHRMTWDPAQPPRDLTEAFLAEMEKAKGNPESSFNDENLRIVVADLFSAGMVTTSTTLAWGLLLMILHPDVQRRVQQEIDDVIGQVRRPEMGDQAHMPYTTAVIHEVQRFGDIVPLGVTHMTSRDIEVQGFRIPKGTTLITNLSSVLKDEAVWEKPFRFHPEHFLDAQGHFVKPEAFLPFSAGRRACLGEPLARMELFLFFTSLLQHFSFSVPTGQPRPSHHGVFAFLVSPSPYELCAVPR

C[C@]12CC[C@@H]3c4ccc(B(O)O)cc4C[C@@H](CCCCCCCCC[S+]([O-])CCCC(F)(F)C(F)(F)F)[C@H]3[C@@H]1CC[C@@H]2O (stereo partly shown) [ZB716, fulvestrant-3-boronic acid]
recovery at 6 h, 0.1 μM ([1]; pH 7.4, 0.1 μM): < 96% | recovery at 6 h, 1 μM ([1]; pH 7.4, 1 μM): < 88.8% | recovery at 6 h, 10 μM ([1]; pH 7.4, 10 μM): < 95% | Bound ([2]; 0.1 μM): >97.4% | Unbound ([2]; 0.1 μM): <2.63% | Remaining ([2]; 0.1 μM): 98.5 ± 14.5% | Bound ([2]; 1 μM): >99.7% | Unbound ([2]; 1 μM): <0.266% | Remaining ([2]; 1 μM): 92.2 ± 5.7% | Bound ([2]; 10 μM): >99.97% | Unbound ([2]; 10 μM): <0.0272% | Remaining ([2]; 10 μM): 97.4 ± 10.7% | IC50 [3]: 12.5 µM | half-life at 2 µM ([4]; human): 11.1 ± 1.2 min | Clint ([4]; recombinant CYP2C8, 2 µM ZB716): 1.25 ± 0.14 µL/min/pmol CYP | half-life at 2 µM ([5]; human): 5.91 ± 0.39 min | Clint ([5]; recombinant CYP3A4, 2 µM ZB716): 2.35 µL/min/pmol CYP and 2.35 ± 0.15 µL/min/pmol CYP | Percent of Control ([6]; donor one, 0.15 µM): 2.92% | Percent of Control ([6]; donor one, 1.5 µM): 18.4% | Percent of Control ([6]; donor one, 5 µM): 73.6% | Percent of Control ([6]; donor one, 15 µM): 80.0% | Percent of Control ([6]; donor three, 0.15 µM): 3.78% | Percent of Control ([6]; donor three, 1.5 µM): 45.0% | Percent of Control ([6]; donor three, 5 µM): 41.6% | Percent of Control ([6]; donor three, 15 µM): 20.3% | Percent of Control ([6]; donor two, 0.15 µM): 0.777% | Percent of Control ([6]; donor two, 1.5 µM): 8.38% | Percent of Control ([6]; donor two, 5 µM): 17.4% | Percent of Control ([6]; donor two, 15 µM): 12.6% | fold induction at 72 h, 0.15 µM ([6]; donor one, 0.15 µM): 1.24 ± 0.1 | fold induction at 72 h, 1.5 µM ([6]; donor one, 1.5 µM): 2.52 ± 0.17 | fold induction at 72 h, 5 µM ([6]; donor one, 5 µM): 7.09 ± 0.78 | fold induction at 72 h, 15 µM ([6]; donor one, 15 µM): 7.62 ± 1.63 | fold induction at 72 h, 0.15 µM ([6]; donor three, 0.15 µM): 1.2 ± 0.22 | fold induction at 72 h, 1.5 µM ([6]; donor three, 1.5 µM): 3.42 ± 0.2 | fold induction at 72 h, 5 µM ([6]; donor three, 5 µM): 3.24 ± 0.53 | fold induction at 72 h, 15 µM ([6]; donor three, 15 µM): 2.09 ± 0.49 | fold induction at 72 h, 0.15 µM ([6]; donor two, 0.15 µM): 1.11 ± 0.05 | fold induction at 72 h, 1.5 µM ([6]; donor two, 1.5 µM): 2.17 ± 0.03 | fold induction at 72 h, 5 µM ([6]; donor two, 5 µM): 3.44 ± 0.18 | fold induction at 72 h, 15 µM ([6]; donor two, 15 µM): 2.77 ± 0.34 | Inhibition % ([7]; 2 µM ZB716, Without Inhibitor): 0.00% | Remaining Percentage (%) at 15 min ([7]; 2 µM ZB716, Without Inhibitor): 18.7 ± 1.2% | Remaining Percentage (%) at 60 min ([7]; 2 µM ZB716, Without Inhibitor): 5.74 ± 0.52% | Inhibition % [7, 8]: −48.9% | Remaining Percentage (%) at 15 min [7, 8]: 8.24 ± 0.80% | Remaining Percentage (%) at 60 min [7, 8]: 1.43 ± 0.51% | Inhibition % [7, 9]: −14.4% | Remaining Percentage (%) at 15 min [7, 9]: 14.8 ± 2.5% | Remaining Percentage (%) at 60 min [7, 9]: 5.24 ± 2.31% | Inhibition % [7, 10]: −9.46% | Remaining Percentage (%) at 15 min [7, 10]: 15.9 ± 0.8% | Remaining Percentage (%) at 60 min [7, 10]: 2.09 ± 0.23% | Inhibition % [7, 11]: −15.1% | Remaining Percentage (%) at 15 min [7, 11]: 14.6 ± 2.4% | Remaining Percentage (%) at 60 min [7, 11]: 3.41 ± 0.30% | Inhibition % [7, 12]: −31.8% | Remaining Percentage (%) at 15 min [7, 12]: 10.9 ± 0.1% | Remaining Percentage (%) at 60 min [7, 12]: 2.31 ± 0.18% | Inhibition % [7, 13]: −22.5% | Remaining Percentage (%) at 15 min [7, 13]: 12.8 ± 1.2% | Remaining Percentage (%) at 60 min [7, 13]: 3.10 ± 0.44% | Inhibition % [7, 14]: 74.7% | Remaining Percentage (%) at 15 min [7, 14]: 65.6% and 65.6 ± 6.0% | Inhibition % [7, 15]: 88.2% | Remaining Percentage (%) at 15 min [7, 15]: 74.4% and 74.4 ± 5.8% | Remaining Percentage (%) at 60 min [7, 15]: 43.4 ± 2.8%
